We go through six molecules from ChEMBL document CHEMBL1128772, “Methylenedioxyphenyl substituted compounds from Piper species as inhibitors of liver microsome-mediated aflatoxin B1-DNA binding in vitro” (Bioorg Med Chem Lett, 1995).

Structures are written as SMILES.

The test system of experiment [1] is Nucleic Acid. The experiment in a line: Tested in vitro for inhibition of rat liver microsome-mediated AFB1-DNA at concentration of 10 uM. The format is microsomes.
Experiment [2] relates to Nucleic Acid. The experiment in a line: In vitro binding affinity to rat liver microsome-mediated AFB1-DNA using [3H]- AFB1 radioligand assay at concentration of 10 uM. In kind it is microsomes. For orientation: Liver microsomes are a subcellular fraction often used to study metabolism.
Experiment [3] deals with Nucleic Acid. Put plainly: In vitro binding affinity to rat liver microsome-mediated AFB1-DNA using [3H]- AFB1 radioligand assay at concentration of 50 uM.
Experiment [4] concerns Nucleic Acid. Put plainly: In vitro binding affinity to rat liver microsome-mediated AFB1-DNA using [3H]- AFB1 radioligand assay at concentration of 100 uM. The format is microsomes.
Experiment [5] concerns Nucleic Acid. The experiment in a line: Tested in vitro for inhibition of rat liver microsome-mediated AFB1-DNA at concentration of 50 uM. The format is microsomes.
Experiment [6] has as its system Nucleic Acid. The experiment in a line: Tested in vitro for inhibition of rat liver microsome-mediated AFB1-DNA at concentration of 100 uM. In kind it is microsomes.

As usually defined, the inhibition is the share of the control response that was lost under treatment. For `O=C(/C=C/C=C/c1ccc2c(c1)OCO2)N1CCCCC1`, the inhibition in the experiment on Nucleic Acid [1] was determined as 27%; with Nucleic Acid [5], 47%; in the experiment on Nucleic Acid [6] it was 57%. Besides, the results for the Binding (pM 30min-1 (mg of DNA)-1) in the experiment with Nucleic Acid [2], with Nucleic Acid [3] and in the experiment on Nucleic Acid [4] were 96.6, 70 and 56.6, respectively.

In the case of `C=CCC1=C[C@]2(OC)[C@H](C)[C@@H](c3ccc4c(c3)OCO4)O[C@]2(OC)CC1=O`, the figures for the inhibition in the experiment on Nucleic Acid [1], in the experiment with Nucleic Acid [5] and with Nucleic Acid [6] were 9%, 21% and 23%, respectively. Besides, the values for the Binding (pM 30min-1 (mg of DNA)-1) in the experiment with Nucleic Acid [2], in the experiment with Nucleic Acid [3] and with Nucleic Acid [4] were 127, 110 and 108, respectively.

Regarding `COC(=O)/C=C/C=C/c1ccc2c(c1)OCO2`, the values for the inhibition in the experiment with Nucleic Acid [1], in the experiment with Nucleic Acid [5] and with Nucleic Acid [6] were 16%, 42% and 61%, respectively. The Binding (pM 30min-1 (mg of DNA)-1) was found to be 110 with Nucleic Acid [2], 76 in the experiment with Nucleic Acid [3] and 50.7 in the experiment with Nucleic Acid [4].

Turning to `c1cc2c(cc1[C@H]1OC[C@H]3[C@@H]1CO[C@H]3c1ccc3c(c1)OCO3)OCO2`, the inhibition in the experiment on Nucleic Acid [1] worked out at 21%; in the experiment with Nucleic Acid [5] it was 42%; in the experiment on Nucleic Acid [6], 48%. Further, the Binding (pM 30min-1 (mg of DNA)-1) with Nucleic Acid [2] was 105; with Nucleic Acid [3], 76.5; in the experiment on Nucleic Acid [4] it was 68.2.

On to `C=CCC1=C[C@@](OC)([C@H](C)Cc2ccc3c(c2)OCO3)C(OC)=CC1=O`, for which the figures for the inhibition in the experiment on Nucleic Acid [1], in the experiment with Nucleic Acid [5] and in the experiment on Nucleic Acid [6] were 11%, 12% and 13%, respectively. In addition, the Binding (pM 30min-1 (mg of DNA)-1) in the experiment on Nucleic Acid [2] came to 124; in the experiment with Nucleic Acid [3], 123; in the experiment on Nucleic Acid [4], 122.

`C=CCC1=C[C@]2(OC)[C@H](C)[C@@H](c3ccc4c(c3)OCO4)O[C@]2(OC)C[C@@H]1O`: the inhibition in the experiment on Nucleic Acid [1] was 31%; in the experiment on Nucleic Acid [5], 64%; with Nucleic Acid [6], 81%. Besides, the values for the Binding (pM 30min-1 (mg of DNA)-1) with Nucleic Acid [2], with Nucleic Acid [3] and in the experiment with Nucleic Acid [4] were 91, 48 and 24.8, respectively.
